25 compounds from PubChem BioAssay AID340 (DTP/NCI, 2004) can be followed below.

“And” between values parts separate entries of the source, which are not always exact repeats. Equal values may be shown once. Toxic doses and inconclusive results are not listed.

This assay deals with CD2F1 mice, ip reticulum cell sarcoma, survival T/C. Description: NCI In Vivo Anticancer Drug Screen. Data for tumor model Reticulum Cell Sarcoma (Kelley Mouse) (intraperitoneal) in CD2F1 (CDF1) mice. Conditions: endpoint: median survival time, higher = longer survival. Here is the method:
The antitumor activity of compounds was measured in mice bearing transplantable tumors. Survival or tumor size were measured and the results are expressed as the measurement made in the treated group (T) divided by the measurement made in the vehicle treated control group (C). The tumor model used in this assay is Reticulum Cell Sarcoma (Kelley Mouse) (intraperitoneal) in CD2F1 (CDF1) mice

Setting [1] is: dose: 2.0 mg/kg/injection, schedule: Q01DX010 (ip), vehicle: saline.
Setting [2] is: dose: 4.0 mg/kg/injection, schedule: Q01DX010 (ip), vehicle: saline.
Setting [3] is: dose: 8.0 mg/kg/injection, schedule: Q01DX010 (ip), vehicle: saline.
[4] abbreviates: dose: 16.0 mg/kg/injection, schedule: Q01DX010 (ip), vehicle: saline.
[5] abbreviates: dose: 1.0 mg/kg/injection, schedule: Q01DX010 (ip), vehicle: saline.
Setting [6] is: dose: 250.0 micrograms/kg/injection, schedule: Q01DX010 (ip), vehicle: saline.
Setting [7] is: dose: 500.0 micrograms/kg/injection, schedule: Q01DX010 (ip), vehicle: saline.
Where [8] appears, read: dose: 4.0 mg/kg/injection, schedule: Q01DX010 (ip), vehicle: other.
The mark [9] stands for this setting: dose: 8.0 mg/kg/injection, schedule: Q01DX010 (ip), vehicle: other.
Setting [10] is: dose: 62.5 mg/kg/injection, schedule: Q01DX010 (ip), vehicle: saline.
The mark [11] stands for this setting: dose: 125.0 mg/kg/injection, schedule: Q01DX010 (ip), vehicle: saline.
Where [12] appears, read: dose: 250.0 mg/kg/injection, schedule: Q01DX010 (ip), vehicle: saline.
Where [13] appears, read: dose: 0.25 mg/kg/injection, schedule: Q01DX010 (ip), vehicle: saline.
The mark [14] stands for this setting: dose: 0.5 mg/kg/injection, schedule: Q01DX010 (ip), vehicle: saline.
Setting [15] is: dose: 6.25 mg/kg/injection, schedule: Q01DX010 (ip), vehicle: saline.
The mark [16] stands for this setting: dose: 12.5 mg/kg/injection, schedule: Q01DX010 (ip), vehicle: saline.
[17] abbreviates: dose: 5.0 mg/kg/injection, schedule: Q01DX010 (ip), vehicle: saline.
Setting [18] is: dose: 10.0 mg/kg/injection, schedule: Q01DX010 (ip), vehicle: saline.
Setting [19] is: dose: 20.0 mg/kg/injection, schedule: Q01DX010 (ip), vehicle: saline.
Where [20] appears, read: dose: 40.0 mg/kg/injection, schedule: Q01DX010 (ip), vehicle: saline.
Where [21] appears, read: dose: 32.0 mg/kg/injection, schedule: Q01DX010 (ip), vehicle: saline.
Setting [22] is: dose: 64.0 mg/kg/injection, schedule: Q01DX010 (ip), vehicle: saline.

Take `NC(CCSCc1ccc(N(CCCl)CCCl)cc1)C(=O)O` (centres undefined): the T/C was 100 % of control (dose: 4.5 mg/kg/injection, schedule: Q01DX010 (ip), vehicle: saline); 106 % of control and 117 % of control (dose: 9.0 mg/kg/injection, schedule: Q01DX010 (ip), vehicle: saline); 106 % of control and 117 % of control (dose: 18.0 mg/kg/injection, schedule: Q01DX010 (ip), vehicle: saline); 110 % of control and 111 % of control (dose: 36.0 mg/kg/injection, schedule: Q01DX010 (ip), vehicle: saline).
Take `O=C(Nc1ccc(NC2=NCCN2)cc1)c1ccc(C(=O)Nc2ccc(NC3=NCCN3)cc2)cc1`: the T/C is, setting by setting: under setting [1], 120 % of control and 121 % of control; under setting [2], 168 % of control; under setting [3], 167 % of control and 200 % of control; under setting [4], 107 % of control and 121 % of control.
On to `CS(=O)(=O)OCCN(CCOS(C)(=O)=O)c1ccc(N=O)cc1`, for which the T/C under setting [5] was 103 % of control and 110 % of control; the T/C under setting [1] is 96 % of control; the T/C (dose: 62.5 micrograms/kg/injection, schedule: Q01DX010 (ip), vehicle: saline) was 116 % of control; the T/C under setting [6] was 166 % of control; the T/C under setting [7] is 175 % of control.
For `O=C(Nc1ccc(C2=NCCCN2)cc1)c1ccc(NC(=O)c2ccc(C3=NCCCN3)cc2)cc1`, the T/C reads like this: (dose: 1.0 mg/kg/injection, schedule: Q01DX010 (ip), vehicle: other) 117 % of control; (dose: 2.0 mg/kg/injection, schedule: Q01DX010 (ip), vehicle: other) 208 % of control and 222 % of control; under setting [8], 177 % of control; under setting [9], 122 % of control.
In the case of `CC(=O)N(C)C`, the T/C is, setting by setting: under setting [10], 100 % of control and 107 % of control; under setting [11], 95 % of control and 102 % of control; under setting [12], 97 % of control and 105 % of control; (dose: 500.0 mg/kg/injection, schedule: Q01DX010 (ip), vehicle: saline) 90 % of control and 100 % of control.
Take `N#C[C@@H]1C2C=CC(CC2)[C@H]1C#N`: the T/C by setting is: under setting [13], 97 % of control; under setting [14], 102 % of control and 105 % of control; under setting [5], 88 % of control and 94 % of control; under setting [1], 97 % of control and 100 % of control.
`O=C(Nc1ccc(C2=NCCN2)cc1)c1ccc(C(=O)Nc2ccc(C3=NCCN3)cc2)c([N+](=O)[O-])c1`: the T/C was 168 % of control (dose: 6.0 mg/kg/injection, schedule: Q01DX010 (ip), vehicle: saline); 255 % of control and 297 % of control under setting [3]; 281 % of control and 300 % of control (dose: 12.0 mg/kg/injection, schedule: Q01DX010 (ip), vehicle: saline).
As for `O=C(Nc1ccc(C2=NCCN2)cc1)c1ccc(C(=O)Nc2ccc(C3=NCCN3)cc2)cc1`, the T/C runs as follows: under setting [8], 168 % of control; under setting [9], 277 % of control and 302 % of control; (dose: 16.0 mg/kg/injection, schedule: Q01DX010 (ip), vehicle: other) 242 % of control and 302 % of control; (dose: 32.0 mg/kg/injection, schedule: Q01DX010 (ip), vehicle: other) 166 % of control and 231 % of control; (dose: 64.0 mg/kg/injection, schedule: Q01DX010 (ip), vehicle: other) 168 % of control.
Turning to `O=C(O)CCCc1ccc(N(CCCl)CCCl)cc1`, the T/C is, setting by setting: under setting [15], 103 % of control; under setting [16], 106 % of control.
Take `C[C@@H]1C[C@@H]([C@H](O)CC2CC(=O)NC(=O)C2)C(=O)[C@@H](C)C1`: the T/C is, setting by setting: under setting [17], 97 % of control and 100 % of control; under setting [18], 105 % of control and 108 % of control; under setting [19], 120 % of control; under setting [20], 105 % of control.
In the case of `O=C(Nc1ccc(C2=NCCN2)cc1)c1cccc(C(=O)Nc2ccc(C3=NCCN3)cc2)c1`, the T/C under setting [3] is 121 % of control; the T/C under setting [4] is 121 % of control; the T/C under setting [21] is 157 % of control; the T/C under setting [22] is 186 % of control and 210 % of control.
With `CC/C(=C(/CC)c1ccc(O)cc1)c1ccc(O)cc1`, the T/C was 105 % of control and 110 % of control (dose: 12.5 mg/kg/injection, schedule: Q01DX010 (sc), vehicle: steriod suspending solution); 105 % of control (dose: 25.0 mg/kg/injection, schedule: Q01DX010 (sc), vehicle: steriod suspending solution); 100 % of control and 110 % of control (dose: 50.0 mg/kg/injection, schedule: Q01DX010 (sc), vehicle: steriod suspending solution); 105 % of control and 115 % of control (dose: 100.0 mg/kg/injection, schedule: Q01DX010 (sc), vehicle: steriod suspending solution).
For the compound `O=NN(CCCl)C(=O)NCCCl`, the T/C was 194 % of control and 200 % of control under setting [15]; 97 % of control and 110 % of control under setting [16].
As to `NC(Cc1ccc(N(CCCl)CCCl)cc1)C(=O)O` (centres undefined), the T/C under setting [18] was 100 % of control.
As for `S=P(N1CCOCC1)(N1CC1)N1CC1`, the T/C was 100 % of control and 103 % of control (dose: 2.5 mg/kg/injection, schedule: Q01DX010 (ip), vehicle: saline); 100 % of control and 106 % of control under setting [17]; 100 % of control and 106 % of control under setting [18].
As for `Cc1cc(N(CCCl)CCCl)ccc1N=Nc1ccccc1C(=O)O`, the T/C under setting [17] was 100 % of control; the T/C under setting [18] was 103 % of control; the T/C under setting [19] was 113 % of control and 122 % of control; the T/C under setting [20] is 106 % of control.
For `CCCSc1ncnc2nc[nH]c12`, the T/C runs as follows: (dose: 31.3 mg/kg/injection, schedule: Q01DX010 (ip), vehicle: saline) 100 % of control and 112 % of control; under setting [10], 96 % of control and 106 % of control; under setting [11], 96 % of control and 106 % of control; under setting [12], 109 % of control.
As to `Nc1nc(SCc2ccccc2)c2[nH]cnc2n1`, the T/C is, setting by setting: under setting [3], 106 % of control; under setting [4], 106 % of control; under setting [22], 116 % of control; (dose: 128.0 mg/kg/injection, schedule: Q01DX010 (ip), vehicle: saline) 112 % of control.
Turning to `c1ccc(CNc2ncnc3[nH]ncc23)cc1`, the T/C under setting [3] is 100 % of control and 105 % of control; the T/C under setting [4] is 100 % of control and 105 % of control; the T/C under setting [21] is 100 % of control and 105 % of control; the T/C under setting [22] is 95 % of control and 97 % of control.
Turning to `CSc1ncnc2nc[nH]c12`, the T/C (dose: 25.0 mg/kg/injection, schedule: Q01DX010 (ip), vehicle: saline) is 100 % of control; the T/C (dose: 50.0 mg/kg/injection, schedule: Q01DX010 (ip), vehicle: saline) is 100 % of control; the T/C (dose: 100.0 mg/kg/injection, schedule: Q01DX010 (ip), vehicle: saline) is 93 % of control; the T/C (dose: 200.0 mg/kg/injection, schedule: Q01DX010 (ip), vehicle: saline) was 100 % of control.
With `CCN(CCNc1ccc(C)c2sc3cc(Cl)ccc3c(=O)c12)CC(C)O` (centres undefined), the T/C is 94 % of control (dose: 7.8 mg/kg/injection, schedule: Q01DX010 (ip), vehicle: saline); 94 % of control (dose: 15.6 mg/kg/injection, schedule: Q01DX010 (ip), vehicle: saline); 94 % of control under setting [10]; 88 % of control under setting [11]; 88 % of control under setting [12].
As to `Nc1nc(F)nc2c1ncn2C1OC(CO)C(O)C1O` (centres undefined), the T/C is, setting by setting: under setting [13], 100 % of control; under setting [14], 100 % of control and 105 % of control; under setting [5], 91 % of control and 103 % of control; under setting [1], 100 % of control and 105 % of control; under setting [2], 88 % of control.
With `O=c1[nH]c(=O)n(C2CC(O)C(CO)O2)cc1F` (centres undefined), the T/C under setting [17] was 156 % of control, the T/C under setting [19] was 171 % of control and the T/C under setting [20] is 187 % of control.
For the compound `COC(=O)[C@@H]1c2cc3c(c(O)c2[C@@H](OC2OC(C)C(OC)C(C)(OC)C2OC)C[C@]1(C)O)C(=O)c1c(O)cc2c(c1C3=O)O[C@H]1O[C@]2(C)[C@H](O)[C@@H](N(C)C)[C@@H]1O` (some centres undefined), the T/C runs as follows: (dose: 63.0 micrograms/kg/injection, schedule: Q01DX010 (ip), vehicle: saline) 103 % of control; (dose: 125.0 micrograms/kg/injection, schedule: Q01DX010 (ip), vehicle: saline) 103 % of control and 105 % of control; under setting [6], 103 % of control and 105 % of control; under setting [7], 100 % of control; (dose: 1000.0 micrograms/kg/injection, schedule: Q01DX010 (ip), vehicle: saline) 94 % of control.
Turning to `Nc1nc(=S)c2[nH]cnc2[nH]1`, the T/C runs as follows: (dose: 1.25 mg/kg/injection, schedule: Q01DX010 (ip), vehicle: saline) 150 % of control and 170 % of control; under setting [17], 105 % of control and 120 % of control; under setting [18], 105 % of control and 108 % of control.
